Source: patent publication US20260256751A1, “COMBINATION OF BETA-2-ADRENERGIC RECEPTOR AGONISTS AND GLP-1 RECEPTOR AGONISTS FOR USE IN TREATING HYPERGLYCAEMIA” (ATROGI AB, priority 2023, published 2026)

Legend:
[1] = test system: differentiated L6-myotubes; experiment: cAMP production relative to isoprenaline (Biological example 2 of WO 2019/053427); assay type: cell-based; details: 0.25 h, compound at 10 μM, activity relative to isoproterenol at 10 μM
Summary of the method: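 Differentiated L6 myotubes stimulated 15 min with test compound or isoprenaline, each at final 1×10^−5 M, in HBSS with 1% BSA, 5 mM HEPES, 1 mM IBMX, pH 7.4. cAMP production by the compound expressed relative to that induced by the same concentration of isoprenaline.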

[2] = test system: differentiated L6-myotubes; experiment: Glucose uptake screen (Biological example 1 of WO 2019/053427); assay type: cell-based; details: compound at 10 μM, activity relative to isoproterenol at 10 μM, read-out: Biological example 1 of WO 2019/053427 (GU)
Summary of the method: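 Rat L6 myoblasts were differentiated into myotubes over 7 days in 2% FBS, then serum-starved overnight. Cells were stimulated with 1×10^−5 M compound plus β2 antagonist ICI-118551 for 1 h 40 min and re-dosed for 20 min in glucose-free medium. Uptake of 50 nM ^3H-2-deoxyglucose over 10 min was counted after NaOH lysis.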

| Structure (SMILES) | Emax at 10 µM [1] | Emax at 10 µM [2] |
| --- | --- | --- |
| O=C(N[C@H]1CC[C@@H](CNC[C@H](O)c2cncc(F)c2)CC1)c1ccccc1 [Compound 318, N-[(1S,4s)-4-{[(R)-2-(5-fluoro-3-pyridyl)-2-hydroxyethylamino]methyl}cyclohexyl]benzamide] | < 25% | 50 to 75% |
| CCC[C@@H]1CCC[C@H]([C@H](O)c2cccc(F)c2)N1 [Compound 59, (R)-[(2R,6R)-6-propyl-2-piperidyl](m-fluorophenyl)methanol] | < 25% | 25 to 50% |
| COC(=O)[C@H]1CC[C@@H](C(C)(C)NC[C@H](O)c2cccc(F)c2)CC1 [Compound 328, (1S,4s)-8-[(R)-2-(m-fluorophenyl)-2-hydroxyethylamino]-7-methoxy-p-menthan-7-one] | < 25% | > 75% |
| CO[C@H]1CC[C@H](CCC(C)(C)NC[C@H](O)c2cncc(F)c2)CC1 [Compound 267, (R)-2-{1,1-dimethyl-3-[(1r,4S)-4-methoxycyclohexyl]propyl-amino}-1-(5-fluoro-3-pyrdiyl)-1-ethanol] | < 25% | 25 to 50% |
| O[C@@H](c1cccc(F)c1)C12CCC(COCc3ccc(OC(F)(F)F)cc3)(CC1)N2 [Compound 487, (S)-(m-fluorophenyl)(4-{[(p-trifluoromethoxyphenyl)methoxy]methyl}-7-azabicylco[2.2.1]hept-1-yl)methanol] | < 25% | < 25% |
| CN([C@H]1CC[C@H](CC(C)(C)NC[C@H](O)c2cccc(F)c2)CC1)S(C)(=O)=O [Compound 499, (R)-2-{1,1-dimethyl-2-[(1r,4R)-4-(N-mesyl-N-methylamino)cyclohexyl]ethylamino}-1-(m-fluorophenyl)-1-ethanol] | < 25% | 25 to 50% |
| CCCCNC[C@H](O)c1ccnc(N)n1 [Compound 73, (S)-1-(2-amino-4-pyrimidinyl)-2-(butylamino)-1-ethanol] | < 25% | 25 to 50% |
| CC(C)(C[C@H]1CC[C@H](O)CC1)NC[C@H](O)c1cccc(F)c1 [Compound 300, (R)-2-{1,1-dimethyl-2-[(1r,4R)-4-hydroxycyclohexyl]ethylamino}-1-(m-fluorophenyl)-1-ethanol] | < 25% | > 75% |
| O[C@@H](c1cccc(F)c1)C12CCC(COCc3ccc(F)cc3)(CC1)N2 [Compound 438, (S)-(m-fluorophenyl)(4-{[(p-fluorophenyl)methoxy]methyl}-7-azabicyclo[2.2.1]hept-1-yl)methanol] | < 25% | < 25% |
| CO[C@H]1CC[C@H](C[C@@H]2CC[C@H]([C@H](O)c3cncc(F)c3)N2)CC1 [Compound 333, (R)-[(2R,5S)-5-{[(1r,4S)-4-methoxycyclohexyl]methyl}-2-pyrrolidinyl](5-fluoro-3-pyridyl)methanol] | < 25% | 25 to 50% |
| CS(=O)(=O)Nc1cccc(CC23CCC([C@H](O)c4cccc(F)c4)(CC2)N3)c1 [Compound 515, (R)-(m-fluorophenyl)(4-{[m-(mesylamino)phenyl]methyl}-7-azabicyclo[2.2.1]hept-1-yl)methanol] | 25 to 50% | 50 to 75% |
| CO[C@H]1CCC[C@@H](C(C)(C)NC[C@H](O)c2cncc(F)c2)C1 [Compound 270, (R)-2-{1-[(1R,3S)-3-methoxycyclohexyl]-1-methylethylamino}-1-(5-fluoro-3-pyridyl)-1-ethanol] | 50 to 75% | > 75% |
| O[C@@H](c1cccc(F)c1)[C@H]1CC[C@@H](Cc2ccc(Cl)cc2)N1 [Compound 391, (S)-{(2R,5S)-5-[(p-chlorophenyl)methyl]-2-pyrrolidinyl}(m-fluorophenyl)methanol] | < 25% | 50 to 75% |
| CC(=O)N[C@H]1CC[C@H](C(C)(C)NC[C@H](O)c2cncc(F)c2)CC1 [Compound 346, N-[(1R,4r)-4-{1-[(R)-2-(5-fluoro-3-pyridyl)-2-hydroxyethylamino]-1-methylethyl}cyclohexyl]acetamide] | < 25% | > 75% |
| CO[C@H]1CC[C@@H](C(C)(C)NC[C@H](O)c2cncc(F)c2)CC1 [Compound 252, (R)-1-(5-fluoro-3-pyridyl)-2-{1-methyl-1-[(1s,4S)-4-methoxycyclohexyl]ethyl-amino}-1-ethanol] | < 25% | < 25% |
| CC(C)(C[C@H]1CC[C@H](NC(=O)OC(C)(C)C)CC1)NC[C@H](O)c1cccc(C(F)(F)F)n1 [Compound 459, (1S,4r)-4-(2-{(S)-2-hydroxy-2-[6-(trifluoromethyl)-2-pyridyl]ethylamino}-2-methylpropyl)cyclohexyl 2-methyl-2-propanecabamate] | < 25% | > 75% |
| CCC[C@H]1CCC[C@H]([C@H](O)c2cccc(Cl)c2)N1 [Compound 128, (R)-[(2R,6S)-6-propyl-2-piperidyl](m-chlorophenyl)methanol] | < 25% | 25 to 50% |
| CC(C)(NC[C@H](O)c1cccc(F)c1)[C@H]1CC[C@@H](C(=O)O)CC1 [Compound 369, (1S,4s)-8-[(R)-2-(m-fluorophenyl)-2-hydroxyethylamino]-7-hydroxy-p-menthan-7-one] | < 25% | 50 to 75% |

| Structure (SMILES) | Emax at 10 µM [1] | Emax at 10 µM [2] |
| --- | --- | --- |
| CCC[C@@H]1CCC[C@@H]([C@@H](O)c2cccc(O)c2)N1 [Compound 113, (S)-[(2S,6R)-6-propyl-2-piperidyl](m-hydroxyphenyl)methanol] | < 25% | 50 to 75% |
| CC(C)(C)NCC(O)c1ccc(O)cc1 (stereo not shown) [Compound 4, 2-(tert-butylamino)-1-(p-hydroxyphenyl)-1-ethanol] | 25 to 50% | > 75% |
| CC(=O)N[C@H]1CC[C@H](CC(C)(C)NC[C@H](O)c2cccc(C#N)n2)CC1 [Compound 425, N-[(1S,4r)-4-{2-[(S)-2-(6-cyano-2-pyridyl)-2-hydroxyethylamino]-2-methylpropyl}cyclohexyl]acetamide] | 25 to 50% | > 75% |
| CO[C@H]1CC[C@@H](CCNC[C@H](O)c2cccc(F)c2)CC1 [Compound 237, (R)-1-(m-fluorophenyl)-2-{2-[(1s,4S)-4-methoxycyclohexyl]ethyl-amino}-1-ethanol] | < 25% | 50 to 75% |
| CCCCNCC(O)c1cc[nH]c(=O)c1 (stereo not shown) [Compound 62, 4-[2-(butylamino)-1-hydroyxethyl]-2(1H)-pyridinone] | < 25% | 25 to 50% |
| CC(C)(NC[C@H](O)c1cncc(F)c1)[C@H]1CC[C@H](N)CC1 [Compound 344, (R)-1-(5-fluoro-3-pyridyl)-2-{1-methyl-1-[(1r,4R)-4-aminocyclohexyl]ethylamino}-1-ethanol] | < 25% | < 25% |
| CCC[C@H]1CCC[C@H]([C@H](O)c2ccccc2F)N1 [Compound 93, (R)-[(2R,6S)-6-propyl-2-piperidyl](o-fluorophenyl)methanol] | < 25% | 25 to 50% |
| O[C@@H](CNC[C@H]1CC[C@@H](O)CC1)c1cncc(F)c1 [Compound 269, (R)-1-(5-fluoro-3-pyridyl)-2-({[(1s,4S)-4-hydroxycyclohexyl]meth-yl}amno)-1-ethanol] | < 25% | 25 to 50% |
| CCCCNCC(O)c1cc(F)c(N)c(F)c1 (stereo not shown) [Compound 37, 1-(4-amino-3,5-difluorophenyl)-2-(butylamino)-1-ethanol] | > 75% | > 75% |
| O[C@@H](CNCCC[C@H]1CC[C@@H](OCc2ccccc2)CC1)c1cccc(F)c1 [Compound 277, (R)-1-(m-fluorophenyl)-2-{3-[(1s,4R)-4-(benzyloxy)cyclohexyl]pro-pylamino}-1-ethanol] | < 25% | 25 to 50% |
| CC(C)(C[C@H]1CC[C@H](S(N)(=O)=O)CC1)NC[C@H](O)c1cccc(F)c1 [Compound 516, (1R,4r)-4-{2-[(R)-2-(m-fluorophenyl)-2-hydroxyethylamino]-2-methylpropyl}cyclohexanesulfonamide] | < 25% | > 75% |
| CC(C)(C[C@H]1CC[C@@H](NC(=O)OC(C)(C)C)CC1)NC[C@H](O)c1cccc(C#N)n1 [Compound 414] | < 25% | 50 to 75% |
| CCC[C@H]1CCC[C@H]([C@H](O)c2ccc(F)c(F)c2)N1 [Compound 67, (R)-[(2R,6S)-6-propyl-2-piperidyl](3,4-difluorophenyl)methanol] | < 25% | 25 to 50% |
| CCCCNCC(O)c1cc(Cl)c(N)c(C(F)(F)F)c1 (stereo not shown) [Compound 32, 1-[4-amino-3-chloro-5-(trifluoromethyl)phenyl]-2-(butylamino)-1-ethanol] | 25 to 50% | > 75% |
| CC(C)(C[C@H]1CC[C@H](NC(=O)OC(C)(C)C)CC1)NC[C@H](O)c1cccc(F)c1 [Compound 420] | 25 to 50% | 50 to 75% |
| CC(C)(C[C@H]1CC[C@@H](NC(=O)C(C)(C)C)CC1)NC[C@H](O)c1cccc(F)c1 [Compound 455, N-[(1S,4s)-4-{2-[(R)-2-(m-fluorophenyl)-2-hydroxyethylamino]-2-methylpropyl}cyclohexyl]2,2-dimethylpropionamide] | < 25% | 50 to 75% |
| CO[C@H]1CC[C@@H](CC(C)(C)NC[C@H](O)c2cccc(F)c2)CC1 [Compound 247, (R)-2-{1,1-dimethyl-2-[(1s,4S)-4-methoxycyclohexyl]ethyl-amino}-1-(m-fluorophenyl)-1-ethanol] | < 25% | > 75% |
